Test results taken from paper PMC7726444 (Frontiers in Pharmacology, 2020).

Key:
[1] = parameters: method as in Wu and Delamere, 1997; details: dissociation of the protonated pyridine nitrogen; ref Wu and Delamere, 1997; cited from earlier work
[2] = test system: 5-HT content in brain and serum; test: LC-MS/MS determination of 5-HT levels in brain and serum; format: in vivo, mouse; details: 100 mg/kg i.p. once daily for 4 days
From the text: Male CD-1 mice (Janvier Labs, Le Genest-St-Isle, France), 3 months of age were used. The animals in the different treatment groups were matched for age. The University of Barcelona’s Committee on Animal Use and Care approved the protocol. Animals were housed and tested in compliance with the guidelines described in the Guide for the Care and Use of Laboratory Animals ([Clark et al., 1997]) and following the European Union directives (2010/63/EU), FELASA and ARRIVE guidelines. All efforts were made to minimize animal suffering and the number of animals used. All animals were housed in groups of five in standard cages with ad libitum access to food and water and maintained under a 12-h dark/light cycle (starting at 7:30 AM), 22°C temperature, and 66% humidity. […]
Quantitative analysis of 5-HT was carried out by liquid chromatography coupled with tandem mass spectrometry (LC-MS/MS) using an Agilent 1,290 Infinity UHPLC chromatograph (Santa Clara, CA) coupled to a 6500 QTRAP mass spectrometer (ABSciex, Framingham, MA) equipped with an Ion Drive Turbo V ion source operating in positive ion mode. […] Sample-to-sample differences in recovery, liquid handling, and ionization efficiency were compensated for by normalizing to the amount of 5-HT-d4 detected in the samples. […]

WT human TH = target: T1, WT human TH (Homo sapiens, UniProt P07101); test: TH enzymatic activity assay (selectivity); format: biochemical; details: up to a concentration of 100 µM
T1 construct: made in house
Protocol: Full-length WT TPH1 and TPH2 were expressed as N-terminal six-His-maltose-binding protein fusion proteins in pETM-41 and were cleaved and purified as described previously ([McKinney et al., 2004]; [Winge et al., 2007]). Human WT PAH and TH were expressed and isolated as described previously ([Flydal et al., 2012]; [Bezem et al., 2016]).
Purified WT human TPH2, PAH, and TH were used for this purpose, and the activity assays for each enzyme was performed as described previously ([Haavik and Flatmark, 1980]; [Winge et al., 2007]; [Aubi et al., 2015]; [Bezem et al., 2016]).

CD-1 mice = test: Tail suspension test; format: in vivo, mouse; details: 100 mg/kg i.p. once daily for 4 days, test 20 h after last dose, 6 min trial; p = 0.028, Mann-Whitney test
From the text: Male CD-1 mice (Janvier Labs, Le Genest-St-Isle, France), 3 months of age were used. The animals in the different treatment groups were matched for age. The University of Barcelona’s Committee on Animal Use and Care approved the protocol. Animals were housed and tested in compliance with the guidelines described in the Guide for the Care and Use of Laboratory Animals ([Clark et al., 1997]) and following the European Union directives (2010/63/EU), FELASA and ARRIVE guidelines. All efforts were made to minimize animal suffering and the number of animals used. All animals were housed in groups of five in standard cages with ad libitum access to food and water and maintained under a 12-h dark/light cycle (starting at 7:30 AM), 22°C temperature, and 66% humidity. […] While all treated animals were tested in the tail suspension test, brain tissue from eight of the vehicle-treated and nine of the omeprazole-treated mice was used for subsequent analysis of 5-HT content. Serum samples for 5-HT analysis were drawn from another nine vehicle-treated and eight omeprazole-treated mice.
Immobility time in the tail suspension test is known to be sensitive to manipulations that alter brain 5-HT content ([Garcia-Miralles et al., 2016]; [Palucha-Poniewiera et al., 2017]). […] Each animal was suspended for 6 min and the time spent immobile during suspension was counted using a stopwatch. […]

T1 sequence (P07101 1-497 isoform P07101-3): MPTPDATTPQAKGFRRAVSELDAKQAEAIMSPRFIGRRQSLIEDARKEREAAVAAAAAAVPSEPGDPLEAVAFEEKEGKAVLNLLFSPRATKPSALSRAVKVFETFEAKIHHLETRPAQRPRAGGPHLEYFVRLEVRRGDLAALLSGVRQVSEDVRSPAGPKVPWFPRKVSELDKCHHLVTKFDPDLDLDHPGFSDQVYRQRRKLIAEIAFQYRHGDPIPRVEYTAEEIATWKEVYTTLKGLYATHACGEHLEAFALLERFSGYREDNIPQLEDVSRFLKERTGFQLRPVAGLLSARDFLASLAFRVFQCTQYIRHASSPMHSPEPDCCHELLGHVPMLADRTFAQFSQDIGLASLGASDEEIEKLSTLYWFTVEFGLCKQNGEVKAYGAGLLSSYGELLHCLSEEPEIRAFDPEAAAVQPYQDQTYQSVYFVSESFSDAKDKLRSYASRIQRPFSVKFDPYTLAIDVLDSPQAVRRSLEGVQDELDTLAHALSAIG

inhibition of TH (WT human TH): no inhibition
SMILES: COc1ccc2[nH]c([S+]([O-])Cc3ncc(C)c(OC)c3C)nc2c1 (centres unmarked) [Omeprazole]
pKa [1]: 7.1
5-HT content in serum vs vehicle ([2]; serum): significantly higher 5-HT content
5-HT content in brain vs vehicle ([2]; whole-brain tissue): significantly higher 5-HT content
time spent immobile in tail suspension test vs vehicle (CD-1 mice): significantly less time immobile
